Assay results: article PMC9230590, “Pharmacokinetics and Tissue Distribution of Enavogliflozin in Mice and Rats” (Pharmaceutics, 2022)
Several values for one entry are separate records, joined by “and”; a condition that tells them apart may be missing. Equal values may be shown once. Read-outs that look alike come from different tables or passages of the source.

Legend:
[1] = tested on: urinary glucose excretion; parameters: method as in PMID 35395697; settings: single oral administration, dose range 0.2 to 5.0 mg, healthy male volunteers; cited from earlier work
[2] = Pharmacokinetics after oral administration in mice; assay type: in vivo, ICR mice; settings: for AUC(0-inf) / AUC(0-t) / Cmax / half-life / MRT / Tmax / bioavailability: ICR, mouse, plasma; for bioavailability: po; for AUC∞/D / Cmax/D: dose normalized
Method: Mice were fasted with water ad libitum for at least 12 h before oral administration with enavogliflozin. Fifty-four mice were randomly divided into nine groups (n = 6 per group, Table 1) and were administered an enavogliflozin solution at doses of 0.3, 1, and 3 mg/kg via oral gavage. The drug was dissolved in a mixture of 10% DMSO and 90% saline. Blood samples were collected at 0, 0.083, 0.25, 0.5, 1, 2, 4, 8, and 24 h with the same procedures described above and provided in Table 1.
(§1) Concentrations of enavogliflozin in plasma and tissue homogenate samples were analyzed using an Agilent 6430 triple quadrupole liquid chromatography-mass spectrometry (LC–MS/MS) system (Agilent, Wilmington, DE, USA) following a previously published method.
(§2) The data were expressed as the means ± standard deviation for the groups. Pharmacokinetic parameters, such as the area under the plasma concentration–time curve during the period of observation (AUClast), AUC to infinite time (AUC∞), clearance (CL), and volume of distribution at steady-state (Vd,ss), the terminal half-life (t1/2), and mean residence time (MRT) were calculated using non-compartment analysis with WinNonlin software (version 5.1; Pharsights, Cary, NC, USA). The AUC ratios were calculated by dividing the AUClast of enavogliflozin in the tissue samples by the plasma AUClast values of enavogliflozin [15].

hepatocytes = tested on: hepatocytes; parameters: method as in PMID 32932946; settings: dog hepatocytes; cited from earlier work
[3] = Pharmacokinetics after intravenous injection in rats; assay type: in vivo, Sprague Dawley (SD) rats; settings: for AUC∞/D / Co/D: dose normalized; for Co / half-life / MRT / clearance / Vd / AUC(0-inf) / AUC(0-t): plasma; for half-life / MRT / clearance / Vd / AUC(0-inf) / AUC(0-t): rat; for half-life / MRT: incomplete elimination phase; for Vd: read-out: Vd,ss
Method: Twelve rats were randomly divided into three groups (n = 4 per each group) and injected with an enavogliflozin solution at doses of 0.3, 1, and 3 mg/kg. The drug was dissolved in a mixture of 10% DMSO and 90% saline and administered intravenously via the tail vein. Before blood sampling, rats were anesthetized using 2% isoflurane in a vaporizer with an oxygen flow of 0.8 L/min, for 5 min. Blood samples (approximately 100 µL) were collected at 0, 0.05, 0.33, 0.67, 1, 2, 4, 6, and 8 h via the jugular vein under isoflurane anesthesia using a heparin-treated 1 mL syringe (Jung Lim Co. Ltd., Jincheon, Korea). Samples were centrifuged at 12,000× g for 1 min to separate the plasma. An aliquot (30 µL) of each plasma sample was stored at −80 °C until analysis.
as §1, §2

SGLT2 = tested on: SGLT2; parameters: method as in PMID 32183468; settings: cited from earlier work
[4] = Recovery from urine and feces over 72 h in rats; assay type: in vivo, Sprague Dawley (SD) rats; settings: for Recovery, Feces / Recovery, Urine: parent form
Method: Three rats received enavogliflozin (1 mg/kg) intravenously and were returned to metabolic cages with food and water ad libitum and urine and feces samples were collected every 24 h for 72 h. Four rats received enavogliflozin (1 mg/kg) by oral gavage and were returned to their metabolic cages to collect urine and feces samples every 24 h for 72 h with the same protocols described above.
as §1
Aliquots of plasma or urine (30 µL each) and tissue homogenate (50 µL each) were added to 100 µL of aqueous solution of d4-enavogliflozin (IS, 20 ng/mL), and vigorously mixed with 500 µL MTBE for 15 min. After centrifugation at 16,000× g for 5 min, samples were kept for 1 h, at a temperature of −80 °C to freeze the aqueous layer freeze. The organic upper layer was then transferred to a clean tube and evaporated to dryness under a gentle stream of nitrogen. The dried extract was reconstituted in 150 µL of mobile phase, and a 3 µL aliquot was injected into the LC–MS/MS system. Enavogliflozin was separated on a Synergi Polar RP column (2.0 × 150 mm, 4 µm particle size; Phenomenex, Torrence, CA, USA) using a isocratic mobile phase consisting of water (15%) and methanol (85%) containing 0.1% formic acid at a flow rate of 0.25 mL/min.

OC[C@H]1O[C@@H](c2cc(Cc3ccc(C4CC4)cc3)c(Cl)c3c2CCO3)[C@H](O)[C@@H](O)[C@@H]1O [enavogliflozin, (2S,3R,4R,5S,6R)-2-(7-chloro-6-(4-cyclopropylbenzyl) -2,3-dihydrobenzofuran-4-yl)-6-(hydroxymethyl)tetrahydro-2H-pyran-3,4,5-triol]
urinary glucose excretion [1]: dose-dependent increase
AUC(0-inf) ([2]; PO 0.3 mg/kg): 498 ± 79 ng·h/mL
AUC(0-t) ([2]; PO 0.3 mg/kg): 488 ± 77.9 ng·h/mL
Cmax ([2]; PO 0.3 mg/kg): 72.1 ± 10.5 ng/mL
half-life ([2]; PO 0.3 mg/kg): 4.3 ± 0.5 h
AUC(0-inf) ([2]; PO 1 mg/kg): 1370 ± 270 ng·h/mL
AUC(0-t) ([2]; PO 1 mg/kg): 1360 ± 270 ng·h/mL
Cmax ([2]; PO 1 mg/kg): 216 ± 94.1 ng/mL
half-life ([2]; PO 1 mg/kg): 3.5 ± 0.2 h
AUC(0-inf) ([2]; PO 3 mg/kg): 4760 ± 543 ng·h/mL
AUC(0-t) ([2]; PO 3 mg/kg): 4740 ± 532 ng·h/mL
Cmax ([2]; PO 3 mg/kg): 943 ± 231 ng/mL
half-life ([2]; PO 3 mg/kg): 3.3 ± 0.4 h
MRT ([2]; PO 0.3 mg/kg): 5.7 ± 0.5 h
Tmax ([2]; PO 0.3 mg/kg): 1.5 ± 0.5 h
MRT ([2]; PO 1 mg/kg): 5.7 ± 0.5 h
MRT ([2]; PO 3 mg/kg): 5.3 ± 0.5 h
Tmax ([2]; PO 3 mg/kg): 0.9 ± 0.3 h
bioavailability ([2]; 0.3 mg/kg, PO 0.3 mg/kg, AUC∞,PO / AUC∞,IV, read-out: BA (absolute bioavailability)): 97.2%
bioavailability ([2]; 1 mg/kg, PO 1 mg/kg, AUC∞,PO / AUC∞,IV, read-out: BA (absolute bioavailability)): 84.5%
bioavailability ([2]; 3 mg/kg, PO 3 mg/kg, AUC∞,PO / AUC∞,IV, read-out: BA (absolute bioavailability)): 93.7%
bioavailability ([2]; 3 mg/kg, range over doses 0.3, 1 and 3 mg/kg, read-out: Oral bioavailability): 84.5 to 97.2%
AUC∞/D ([2]; PO 0.3 mg/kg): 1658.9 ± 263.5
Cmax/D ([2]; PO 0.3 mg/kg): 240.5 ± 35.0
AUC∞/D ([2]; PO 1 mg/kg): 1373.8 ± 269.6
Cmax/D ([2]; PO 1 mg/kg): 216.1 ± 94.1
AUC∞/D ([2]; PO 3 mg/kg): 1587.0 ± 181.1
Cmax/D ([2]; PO 3 mg/kg): 314.3 ± 76.9
In vitro hepatic clearance (hepatocytes): 17.9 mL/min/kg
AUC∞/D ([3]; IV 0.3 mg/kg): 2831.6 ± 359.0
Co/D ([3]; IV 0.3 mg/kg): 4231.2 ± 1720.0
Co ([3]; IV 0.3 mg/kg): 1269.4 ± 516.0 ng/mL
AUC∞/D ([3]; IV 1 mg/kg): 2798.6 ± 551.4
Co/D ([3]; IV 1 mg/kg): 3956.4 ± 1028.2
Co ([3]; IV 1 mg/kg): 3956.4 ± 1028.2 ng/mL
AUC∞/D ([3]; IV 3 mg/kg): 2462.4 ± 429.3
Co/D ([3]; IV 3 mg/kg): 3419.4 ± 1364.8
Co ([3]; IV 3 mg/kg): 10,258.1 ± 4094.5 ng/mL
plasma concentrations at 24 h ([3]; IV 0.3, 1, and 3 mg/kg groups): below the detection limit
half-life ([3]; Sprague Dawley, IV 0.3 mg/kg): 2.6 ± 0.4 h
half-life ([3]; Sprague Dawley, IV 1 mg/kg): 2.9 ± 0.4 h
half-life ([3]; Sprague Dawley, IV 3 mg/kg): 4.3 ± 0.6 h
MRT ([3]; Sprague Dawley, IV 0.3 mg/kg): 2.5 ± 0.4 h
clearance ([3]; Sprague Dawley, IV 0.3 mg/kg, read-out: CL): 6 ± 0.8 mL/min/kg
Vd ([3]; Sprague Dawley, IV 0.3 mg/kg): 0.9 ± 0.2 L/kg
MRT ([3]; Sprague Dawley, IV 1 mg/kg): 2.9 ± 0.4 h
clearance ([3]; Sprague Dawley, IV 1 mg/kg, read-out: CL): 6.2 ± 1.4 mL/min/kg
Vd ([3]; Sprague Dawley, IV 1 mg/kg): 1.1 ± 0.1 L/kg
MRT ([3]; Sprague Dawley, IV 3 mg/kg): 5.1 ± 1.1 h
clearance ([3]; Sprague Dawley, IV 3 mg/kg, read-out: CL): 6.9 ± 1.2 mL/min/kg
Vd ([3]; Sprague Dawley, IV 3 mg/kg): 2.1 ± 0.4 L/kg
AUC(0-inf) ([3]; Sprague-Dawley, IV 0.3 mg/kg): 850 ± 108 ng·h/mL
AUC(0-t) ([3]; Sprague-Dawley, IV 0.3 mg/kg): 784 ± 94.4 ng·h/mL
AUC(0-inf) ([3]; Sprague-Dawley, IV 1 mg/kg): 2800 ± 551 ng·h/mL
AUC(0-t) ([3]; Sprague-Dawley, IV 1 mg/kg): 2510 ± 447 ng·h/mL
AUC(0-inf) ([3]; Sprague-Dawley, IV 3 mg/kg): 7390 ± 1290 ng·h/mL
AUC(0-t) ([3]; Sprague-Dawley, IV 3 mg/kg): 5610 ± 751 ng·h/mL
clearance ([3]; Sprague-Dawley, IV 0.3–3 mg/kg, all doses together, read-out: Systemic clearance): 6.35 ± 1.14 mL/min/kg
IC50 (SGLT2): 0.8 ± 0.3 nM
mode of SGLT2 inhibition (SGLT2; restrained recovery of SGLT2 activity after removal): reversibly and competitively inhibited SGLT2
difference in IC50 values for SGLT2 versus SGLT1 (SGLT2; selectivity SGLT2 over SGLT1): 667 fold
Recovery in feces relative to urine ([4]; 1 mg/kg IV): about 22.7 fold
Recovery, Feces ([4]; 1 mg/kg IV, 0–24 h): 15.2 ± 6.2 % of Dose
Recovery, Feces ([4]; 1 mg/kg IV, 0–72 h, 1 mg/kg): 15.9 ± 5.9 % of Dose and 15.9 % of Dose
Recovery, Urine ([4]; 1 mg/kg IV, 0–72 h, 1 mg/kg): 0.7 ± 0.2 % of Dose and 0.7 % of Dose
Recovery, Feces ([4]; 1 mg/kg IV, 24–48 h): 0.7 ± 0.8 % of Dose
Recovery, Urine ([4]; 1 mg/kg IV, 24–48 h): 0.1 ± 0.0 % of Dose
Recovery, Feces ([4]; 1 mg/kg PO, 0–24 h): 44.5 ± 11.8 % of Dose
Recovery, Urine ([4]; 1 mg/kg PO, 0–24 h): 0.3 ± 0.1 % of Dose
Recovery, Urine ([4]; 1 mg/kg PO, 0–72 h): 0.3 ± 0.1 % of Dose
Recovery, Feces ([4]; 1 mg/kg PO, 0–72 h, 1 mg/kg): 45.5 % of Dose
Recovery, Feces ([4]; 1 mg/kg PO, 24–48 h): 0.9 ± 0.4 % of Dose
Recovery, Feces ([4]; 1 mg/kg PO, 48–72 h): 0.2 ± 0.0 % of Dose
Recovery, Urine ([4]; 1 mg/kg PO, 48–72 h): 0.3 ± 0.1 % of Dose
dose excreted ([4]; Sprague-Dawley, rat, urine and feces, 1 mg/kg IV, 72 h, read-out: total recovery (feces + urine)): ~16.6%
